Results: doi:10.1101/2025.11.04.686469, “Discovery of Host-Directed Small Molecules with Broad Anti-Leishmanial Efficacy” (bioRxiv, 2025)
≈ marks a conversion by molar mass, not a printed value. Where two headings read alike, the source gives them in different places.

How the values were obtained:
[1] = Effect of compounds on host cell viability (MTT); type: cell-based; settings: human
Summary of the method: (§1)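 THP-1 cells were differentiated with 150 nM PMA for 72 h, then exposed to compounds at 1–50 μM for 24 h; selected compounds were also run at 1–300 μM for 72 h. MTT at 0.5 mg/mL was added for 2 h at 37 °C, and formazan absorbance was read at 560 nm minus 670 nm.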

THP-1 macrophages = test: Effect of compounds on host cell viability (MTT); type: cell-based
Summary of the method: as §1

[2] = tested on: extracellular L. donovani promastigotes; test: Effect of compounds on promastigote viability (resazurin assay); type: cell-based, Leishmania donovani; settings: for MIC50: Leishmania donovani, 72-hour incubation
Procedure: The effect of compounds on extracellular promastigotes was evaluated using a resazurin-based assay as described previously. In short, late log phase Leishmania promastigotes were seeded in a 96 well plate at 1 x 10^5 parasites per well and treated with drugs (0.5 – 200 μM) for 72 hours at 25°C. Ten microliters of resazurin (0.02% w/v) were added to the treated parasites to achieve a final concentration of 0.002% w/v and incubated for 24 hours. Viability of the promastigotes was assessed by fluorescence (excitation 544 nm, emission 590 nm, SpectraMax M2, Molecular Devices).

O=C(CNCc1cccc(F)c1)Nc1ccc(-n2cc(C(F)(F)F)nc2-c2ccc(-c3ccc(C(F)(F)F)cc3)cc2)cc1 [Compound 197]
CC50 at 24 h [1]: > 50 µM
CC50 at 72 h [1]: > 300 µM
CC50 (THP-1 macrophages): > 300 µM
reduction in macrophage viability (THP-1 macrophages; 72hr incubation up to 300μM): Neither compound had any reduction
MIC50 ([2]; resazurin assay (Table 3), read-out: L. donovani Extracellular promastigotes MIC50): 6.4 µM (≈ 3.92 µg/mL)
MIC50 ([2]; resazurin assay, read-out: Extracellular L. donovani promastigotes MIC50): 6.4 µM (≈ 3.92 µg/mL)
direct effect on extracellular promastigote viability ([2]; resazurin assay, strain not named for 53, L. donovani for 197): some direct reduction
